From the NIST ThermoML archive (doi:10.1016/j.jct.2005.10.001)
± gives the expanded uncertainty stated by the source.

How the values were obtained:
[1] = Liquid; for mass density: 293.15 K, 101.33 kPa, Vibrating tube method
[2] = refractive index (Na D-line) (dimensionless); conditions: 293.15 K; 101.33 kPa; Liquid; Standard Abbe refractometry

CC(C)=O [acetone]
mass density [1]: 784.5 ± 0.2 kg/m3 | vapor or sublimation pressure ([1]; 317.58 K): 66.66 ± 1.6 kPa | vapor or sublimation pressure ([1]; 322.68 K): 79.99 ± 2.1 kPa | vapor or sublimation pressure ([1]; 323.15 K): 81.39 ± 0.82 kPa | vapor or sublimation pressure ([1]; 324.94 K): 86.66 ± 2.1 kPa | vapor or sublimation pressure ([1]; 328.98 K): 99.99 ± 2.6 kPa | refractive index [2]: 1.359 ± 0.0004

C=C(C)OCC [2-ethoxy-1-propene]
mass density [1]: 771.2 ± 0.2 kg/m3 | vapor or sublimation pressure ([1]; 320.98 K, Ebulliometric method (Recirculating still)): 62.74 ± 0.8 kPa | vapor or sublimation pressure ([1]; 322.13 K, Ebulliometric method (Recirculating still)): 65.19 ± 0.9 kPa | vapor or sublimation pressure ([1]; 322.7 K, Ebulliometric method (Recirculating still)): 66.66 ± 1.5 kPa | vapor or sublimation pressure ([1]; 323.15 K, Ebulliometric method (Recirculating still)): 67.84 ± 0.7 kPa | vapor or sublimation pressure ([1]; 323.47 K, Ebulliometric method (Recirculating still)): 68.4 ± 0.9 kPa | vapor or sublimation pressure ([1]; 324.5 K, Ebulliometric method (Recirculating still)): 70.65 ± 0.9 kPa | vapor or sublimation pressure ([1]; 325.43 K, Ebulliometric method (Recirculating still)): 72.69 ± 1 kPa | vapor or sublimation pressure ([1]; 326.52 K, Ebulliometric method (Recirculating still)): 75.47 ± 1 kPa | vapor or sublimation pressure ([1]; 327.43 K, Ebulliometric method (Recirculating still)): 77.89 ± 1 kPa | vapor or sublimation pressure ([1]; 327.69 K, Ebulliometric method (Recirculating still)): 79.99 ± 2.1 kPa | vapor or sublimation pressure ([1]; 328.26 K, Ebulliometric method (Recirculating still)): 80.16 ± 1.1 kPa | vapor or sublimation pressure ([1]; 329.39 K, Ebulliometric method (Recirculating still)): 83.21 ± 1.1 kPa | vapor or sublimation pressure ([1]; 329.89 K, Ebulliometric method (Recirculating still)): 85.35 ± 1.1 kPa | vapor or sublimation pressure ([1]; 329.96 K, Ebulliometric method (Recirculating still)): 86.66 ± 2.3 kPa | vapor or sublimation pressure ([1]; 331.07 K, Ebulliometric method (Recirculating still)): 88.17 ± 1.2 kPa | vapor or sublimation pressure ([1]; 331.1 K, Ebulliometric method (Recirculating still)): 89.99 ± 2.5 kPa | vapor or sublimation pressure ([1]; 331.48 K, Ebulliometric method (Recirculating still)): 90.62 ± 1.2 kPa | vapor or sublimation pressure ([1]; 332.88 K, Ebulliometric method (Recirculating still)): 93.41 ± 1.2 kPa | vapor or sublimation pressure ([1]; 333.15 K, Ebulliometric method (Recirculating still)): 95.98 ± 1 kPa | vapor or sublimation pressure ([1]; 333.68 K, Ebulliometric method (Recirculating still)): 96.12 ± 1.3 kPa | vapor or sublimation pressure ([1]; 334.46 K, Ebulliometric method (Recirculating still)): 98.47 ± 1.8 kPa | vapor or sublimation pressure ([1]; 334.57 K, Ebulliometric method (Recirculating still)): 99.82 ± 1.8 kPa | vapor or sublimation pressure ([1]; 334.67 K, Ebulliometric method (Recirculating still)): 99.99 ± 3.1 kPa | refractive index [2]: 1.3913 ± 0.0004

CCC(C)=O [butanone]
mass density [1]: 799.8 ± 0.2 kg/m3 | vapor or sublimation pressure ([1]; 333.15 K): 51.89 ± 0.59 kPa | vapor or sublimation pressure ([1]; 340.17 K): 66.66 ± 1.6 kPa | vapor or sublimation pressure ([1]; 345.51 K): 79.99 ± 2.2 kPa | vapor or sublimation pressure ([1]; 349.12 K): 89.99 ± 2.4 kPa | vapor or sublimation pressure ([1]; 352.3 K): 99.99 ± 2.8 kPa | refractive index [2]: 1.3765 ± 0.0004
